# How the values were obtained:
# SETVI (Foxtail, Green) [1] = experiment: Preemergence herbicidal evaluation; format: in vivo, Setaria viridis; conditions: rated 4-5 weeks after treatment
# Summary of the method: (§1)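 Seeds were planted in potting soil in cups, then sprayed preemergence with the test compound in aqueous acetone at about 0.0156 to 0.500 kg per hectare. Cups were kept under greenhouse conditions and visually rated 4–5 weeks after treatment on a 0–9 scale against an untreated control.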
# ZEAMX (Corn, Field) [2] = experiment: Preemergence herbicidal evaluation; format: in vivo, Zea mays; conditions: rated 4-5 weeks after treatment
# Summary of the method: as §1
# [3] = system: TRZAWR (Wheat, Winter, cv Riband); experiment: Preemergence herbicidal evaluation; format: in vivo, Triticum aestivum; conditions: rated 4-5 weeks after treatment
# Summary of the method: as §1
# CYPIR (Rice Flatsedge) [4] = experiment: Preemergence weed control under flooded paddy conditions; format: in vivo, Cyperus iria; conditions: rated 3-4 weeks after treatment
# Summary of the method: (§2)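 Seeds or propagules sown in silt loam kept flooded 1.5-3 cm; compounds in 50/50 acetone/water pipetted into flood water at about 0.0313 to 0.500 kg/ha. Greenhouse; visual 0-9 rating versus untreated control 3-4 weeks after treatment.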
# CYPSE (Flatsedge) [5] = experiment: as above; format: in vivo, Cyperus serotinus; conditions: rated 3-4 weeks after treatment
# Summary of the method: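 Silt loam, seeds in top 0.5 cm; flood held 1.5-3 cm; test cpd as acetone/water 50/50 into flood water, ~0.0313-0.500 kg/ha a.i.; greenhouse 3-4 wk; visual 0-9 score vs control.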
# [6] = system: ECHORC (Watergrass (Calif.)); experiment: Postemergence weed control under flooded paddy conditions; format: in vivo, Echinochloa oryzoides; conditions: postemergence weeds, rated 3 to 4 weeks after treatment
# Summary of the method: (§3)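 With weeds 3 to 5 cm tall and rice at the 1.5 to 2.5 leaf stage, containers were flooded and water held 1.5 to 3 cm above soil. Compounds in 50/50 v/v aqueous/acetone went into the flood water at about 0.0313 to 0.500 kg/ha a.i. Effects were visually rated 0–9 against controls after three to four weeks in the greenhouse.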
# [7] = system: SAGPY (Arrowhead (Pygmaea)); experiment: as above; format: in vivo, Sagittaria pygmaea; conditions: postemergence weeds, rated 3 to 4 weeks after treatment
# Summary of the method: as §3
# CYPIR (Rice Flatsedge) [8] = experiment: as above; format: in vivo, Cyperus iria; conditions: postemergence weeds, rated 3 to 4 weeks after treatment
# Summary of the method: as §3
# ECHCG (Barnyardgrass) = experiment: Preemergence herbicidal evaluation; format: in vivo, Echinochloa crus-galli; conditions: rated 4-5 weeks after treatment
# Summary of the method: as §1
# [9] = system: ECHORC (Watergrass (Calif.)); experiment: Preemergence weed control under flooded paddy conditions; format: in vivo, Echinochloa oryzoides; conditions: rated 3-4 weeks after treatment
# Summary of the method: as §2
# ZEAMX (Corn, Field) [10] = experiment: Postemergence herbicidal evaluation; format: in vivo, Zea mays
# Summary of the method: (§4)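 First, seedlings were raised for around two weeks. Next, test material in 50/50 acetone/water containing 0.5% TWEEN 20 was sprayed through a nozzle at 40 psi, equivalent to about 0.0156–0.500 kg/ha. Finally, after 4–5 weeks in the greenhouse, plants were rated 0–9.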
# CYPSE (Flatsedge) [11] = experiment: Postemergence weed control under flooded paddy conditions; format: in vivo, Cyperus serotinus; conditions: postemergence weeds, rated 3 to 4 weeks after treatment
# Summary of the method: as §3
# SETVI (Foxtail, Green) [12] = experiment: Postemergence herbicidal evaluation; format: in vivo, Setaria viridis
# Summary of the method: as §4
# ORYSAT (Rice, Tebonnet) = experiment: Postemergence herbicidal evaluation; format: in vivo, Oryza sativa, (L.) Tebonnet
# Summary of the method: as §4
smiles,measurement,setting,value
"CCOC(=O)CN1C(=O)C(CC(=O)OC(C)C)SC1=Nc1cc(-n2c(=O)cc(C(F)(F)F)n(C)c2=O)c(F)cc1Cl (stereo not drawn) [Compound 60, 2-{{2-Chloro-5-[3,6-dihydro-3-methyl-2,6-dioxo-4-(trifluoromethyl)-1(2H)-pyrimidinyl]-4-fluoro-phenyl}imino}-4-oxo-3,5-thiazolidinediacetic acid, 3-ethyl isopropyl ester]",Preemergence herbicidal rating SETVI,"SETVI (Foxtail, Green) [1]; rate 0.0156 kg/ha",0.0
same,Preemergence herbicidal rating SETVI,"SETVI (Foxtail, Green) [1]; rate 0.0313 kg/ha",0.5
same,Preemergence herbicidal rating SETVI,"SETVI (Foxtail, Green) [1]; rate 0.0625 kg/ha",0.5
same,Preemergence herbicidal rating SETVI,"SETVI (Foxtail, Green) [1]; rate 0.1250 kg/ha",4.5
same,Preemergence herbicidal rating SETVI,"SETVI (Foxtail, Green) [1]; rate 0.2500 kg/ha",4.5
same,Preemergence herbicidal rating SETVI,"SETVI (Foxtail, Green) [1]; rate 0.5000 kg/ha",8.0
same,Preemergence herbicidal rating ZEAMX,"ZEAMX (Corn, Field) [2]; rate 0.0156 kg/ha",0.0
same,Preemergence herbicidal rating ZEAMX,"ZEAMX (Corn, Field) [2]; rate 0.0313 kg/ha",0.0
same,Preemergence herbicidal rating ZEAMX,"ZEAMX (Corn, Field) [2]; rate 0.0625 kg/ha",0.5
same,Preemergence herbicidal rating ZEAMX,"ZEAMX (Corn, Field) [2]; rate 0.1250 kg/ha",1.5
same,Preemergence herbicidal rating ZEAMX,"ZEAMX (Corn, Field) [2]; rate 0.2500 kg/ha",3.0
same,Preemergence herbicidal rating ZEAMX,"ZEAMX (Corn, Field) [2]; rate 0.5000 kg/ha",8.0
same,Preemergence herbicidal rating TRZAWR,[3]; rate 0.0156 kg/ha,0.0
same,Preemergence herbicidal rating TRZAWR,[3]; rate 0.0313 kg/ha,0.0
same,Preemergence herbicidal rating TRZAWR,[3]; rate 0.0625 kg/ha,0.0
same,Preemergence herbicidal rating TRZAWR,[3]; rate 0.1250 kg/ha,1.0
same,Preemergence herbicidal rating TRZAWR,[3]; rate 0.2500 kg/ha,1.0
same,CYPIR herbicidal effect rating,CYPIR (Rice Flatsedge) [4]; 0.0313 kg/ha,3.0
same,CYPIR herbicidal effect rating,CYPIR (Rice Flatsedge) [4]; 0.0625 kg/ha,3.0
same,CYPIR herbicidal effect rating,CYPIR (Rice Flatsedge) [4]; 0.1250 kg/ha,6.0
same,CYPIR herbicidal effect rating,CYPIR (Rice Flatsedge) [4]; 0.2500 kg/ha,6.0
same,CYPSE herbicidal effect rating,CYPSE (Flatsedge) [5]; 0.0313 kg/ha,2.0
same,CYPSE herbicidal effect rating,CYPSE (Flatsedge) [5]; 0.0625 kg/ha,2.0
same,CYPSE herbicidal effect rating,CYPSE (Flatsedge) [5]; 0.1250 kg/ha,4.0
same,CYPSE herbicidal effect rating,CYPSE (Flatsedge) [5]; 0.2500 kg/ha,4.0
same,Herbicidal rating ECHORC,[6]; Rate 0.0313 kg/ha,7.0
same,Herbicidal rating ECHORC,[6]; Rate 0.0625 kg/ha,9.0
same,Herbicidal rating ECHORC,[6]; Rate 0.1250 kg/ha,9.0
same,Herbicidal rating ECHORC,[6]; Rate 0.2500 kg/ha,9.0
same,Herbicidal rating SAGPY,[7]; Rate 0.0313 kg/ha,3.0
same,Herbicidal rating SAGPY,[7]; Rate 0.0625 kg/ha,4.0
same,Herbicidal rating SAGPY,[7]; Rate 0.1250 kg/ha,9.0
same,Herbicidal rating SAGPY,[7]; Rate 0.2500 kg/ha,9.0
same,Herbicidal rating CYPIR,CYPIR (Rice Flatsedge) [8]; Rate 0.0313 kg/ha,3.0
same,Herbicidal rating CYPIR,CYPIR (Rice Flatsedge) [8]; Rate 0.0625 kg/ha,3.0
same,Herbicidal rating CYPIR,CYPIR (Rice Flatsedge) [8]; Rate 0.1250 kg/ha,6.0
same,Herbicidal rating CYPIR,CYPIR (Rice Flatsedge) [8]; Rate 0.2500 kg/ha,6.0
same,Preemergence herbicidal rating ECHCG,ECHCG (Barnyardgrass); rate 0.0156 kg/ha,0.0
same,Preemergence herbicidal rating ECHCG,ECHCG (Barnyardgrass); rate 0.0313 kg/ha,0.0
same,Preemergence herbicidal rating ECHCG,ECHCG (Barnyardgrass); rate 0.0625 kg/ha,0.0
same,Preemergence herbicidal rating ECHCG,ECHCG (Barnyardgrass); rate 0.1250 kg/ha,0.0
same,Preemergence herbicidal rating ECHCG,ECHCG (Barnyardgrass); rate 0.2500 kg/ha,0.5
same,Preemergence herbicidal rating ECHCG,ECHCG (Barnyardgrass); rate 0.5000 kg/ha,2.0
same,ECHORC herbicidal effect rating,[9]; 0.0313 kg/ha,7.0
same,ECHORC herbicidal effect rating,[9]; 0.0625 kg/ha,9.0
same,ECHORC herbicidal effect rating,[9]; 0.1250 kg/ha,9.0
same,ECHORC herbicidal effect rating,[9]; 0.2500 kg/ha,9.0
same,Postemergence herbicidal rating ZEAMX,"ZEAMX (Corn, Field) [10]; Rate 0.0158 kg/ha",5.0
same,Postemergence herbicidal rating ZEAMX,"ZEAMX (Corn, Field) [10]; Rate 0.0315 kg/ha",5.0
same,Postemergence herbicidal rating ZEAMX,"ZEAMX (Corn, Field) [10]; Rate 0.0630 kg/ha",5.5
same,Herbicidal rating CYPSE,CYPSE (Flatsedge) [11]; Rate 0.0313 kg/ha,2.0
same,Herbicidal rating CYPSE,CYPSE (Flatsedge) [11]; Rate 0.0625 kg/ha,2.0
same,Herbicidal rating CYPSE,CYPSE (Flatsedge) [11]; Rate 0.1250 kg/ha,4.0
same,Herbicidal rating CYPSE,CYPSE (Flatsedge) [11]; Rate 0.2500 kg/ha,4.0
same,Postemergence herbicidal rating SETVI,"SETVI (Foxtail, Green) [12]; Rate 0.0158 kg/ha",0.0
same,Postemergence herbicidal rating SETVI,"SETVI (Foxtail, Green) [12]; Rate 0.0315 kg/ha",4.0
same,Postemergence herbicidal rating SETVI,"SETVI (Foxtail, Green) [12]; Rate 0.0630 kg/ha",5.0
same,Postemergence herbicidal rating ORYSAT,"ORYSAT (Rice, Tebonnet); Rate 0.0158 kg/ha",3.0
same,Postemergence herbicidal rating ORYSAT,"ORYSAT (Rice, Tebonnet); Rate 0.0315 kg/ha",3.0
same,Postemergence herbicidal rating ORYSAT,"ORYSAT (Rice, Tebonnet); Rate 0.0630 kg/ha",5.0

# From patent US20020137929A1, “1 - (3-heterocyclylphenyl) isothiourea, -isourea, -guanidine and -amidine herbicidal agents” (Intellectual Property Department, BASF Aktiengesellschaft, priority 1998, published 2002)
